{
  "source": "paper PMC5612938",
  "about": "“A multiple biomarker assay for quality assessment of botanical drugs using a versatile microfluidic chip” (Scientific Reports, 2017)",
  "target": "T1, ACE (from rabbit lung) (Oryctolagus cuniculus, UniProt P12822)",
  "T1 construct": "ACE (from rabbit lung); purchased Sigma-Aldrich; host or cells: rabbit lung",
  "T1 sequence (P12822 34-1310)": "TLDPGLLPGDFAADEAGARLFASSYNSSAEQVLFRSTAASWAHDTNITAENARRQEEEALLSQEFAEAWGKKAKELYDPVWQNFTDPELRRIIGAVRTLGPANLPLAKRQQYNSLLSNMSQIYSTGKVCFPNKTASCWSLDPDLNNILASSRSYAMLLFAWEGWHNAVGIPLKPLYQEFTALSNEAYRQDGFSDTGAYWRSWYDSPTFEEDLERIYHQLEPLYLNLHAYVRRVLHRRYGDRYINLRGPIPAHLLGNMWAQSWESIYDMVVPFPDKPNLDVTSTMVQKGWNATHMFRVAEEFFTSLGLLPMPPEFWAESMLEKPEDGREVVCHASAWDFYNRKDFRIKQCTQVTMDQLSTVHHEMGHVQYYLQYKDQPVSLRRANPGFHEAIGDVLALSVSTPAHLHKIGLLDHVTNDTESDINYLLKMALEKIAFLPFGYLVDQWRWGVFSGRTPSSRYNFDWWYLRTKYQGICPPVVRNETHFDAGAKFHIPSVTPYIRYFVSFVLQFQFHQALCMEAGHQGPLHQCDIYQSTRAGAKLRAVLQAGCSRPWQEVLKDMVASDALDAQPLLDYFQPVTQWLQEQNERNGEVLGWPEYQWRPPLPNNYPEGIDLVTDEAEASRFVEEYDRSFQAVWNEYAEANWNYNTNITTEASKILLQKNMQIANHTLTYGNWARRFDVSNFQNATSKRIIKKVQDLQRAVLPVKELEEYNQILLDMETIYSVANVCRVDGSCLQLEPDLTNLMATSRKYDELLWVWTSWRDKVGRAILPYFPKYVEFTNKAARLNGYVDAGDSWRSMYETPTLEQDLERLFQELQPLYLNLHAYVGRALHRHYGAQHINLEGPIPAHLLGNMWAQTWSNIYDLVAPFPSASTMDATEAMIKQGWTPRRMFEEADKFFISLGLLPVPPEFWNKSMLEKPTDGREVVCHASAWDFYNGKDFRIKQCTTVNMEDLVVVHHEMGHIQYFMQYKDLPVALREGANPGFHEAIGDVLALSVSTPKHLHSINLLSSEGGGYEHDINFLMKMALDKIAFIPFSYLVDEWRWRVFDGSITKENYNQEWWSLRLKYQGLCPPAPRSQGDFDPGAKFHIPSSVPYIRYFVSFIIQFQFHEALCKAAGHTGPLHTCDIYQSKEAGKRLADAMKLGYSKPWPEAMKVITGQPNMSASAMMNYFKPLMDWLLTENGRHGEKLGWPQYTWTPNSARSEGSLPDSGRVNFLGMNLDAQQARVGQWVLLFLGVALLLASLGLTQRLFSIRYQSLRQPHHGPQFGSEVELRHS",
  "experiment": "on-chip ACE inhibition assay (FAPGG hydrolysis, absorbance decrease 340 nm)",
  "type": "biochemical",
  "description": "To enhance the performance of the on-chip assay, experimental parameters such as concentrations of enzymes and substrates, substrate reaction time, and incubation time of samples and enzymes were stepwise optimized.\nThe optimized protocol was first applied to assess the quality of 11 batches of QSYQ intermediates (Table 1). Enzyme inhibition (in percentages) was employed as an indicator of drug quality and calculated according to the following equations: thrombin inhibition (%) = [1 − (AQSYQ/Ablank)] × 100; ACE inhibition (%) = [1 − (ΔAQSYQ/ΔAblank)] × 100; where AQSYQ and Ablank were the absorbance of the test sample and the blank sample after the enzymatic reaction (the background value was subtracted), and ΔAQSYQ and ΔAblank were the absorbance decrease between 0 min and 30 min of the samples.\nThrombin (from human plasma), ACE (from rabbit lung), FAPGG and captopril were purchased from Sigma-Aldrich (St. Louis, USA). […] AEBSF-HCl was purchased from Selleckchem (Houston, USA). Trizma base (Tris) was obtained from Sangon Biotech (Shanghai, China) and dimethyl sulfoxide (DMSO) from J&K Scientific (Beijing, China). All other chemicals were purchased from Sinopharm Chemical (Shanghai, China) unless otherwise indicated. 0.2 M Phosphate buffer (PB, pH 6.5), and 50 mM Tris-HCl buffer (200 mM NaCl, pH 8.3) were prepared as assay buffers for thrombin and ACE, respectively.\nMBs (10 mg/mL) were diluted 10 times in PB or Tris-HCl buffer, and 10 μL of the diluted MBs (1 mg/mL) were injected into one channel of the chip using a syringe infusion pump (Harvard Apparatus, USA) and retained by an external magnet. Then, 10 μL of thrombin or ACE solution was added and incubated with MBs for two hours at room temperature to form enzyme-MB complexes. The magnet was manually controlled to move MBs back and forth to enhance the ratio of reaction. Subsequently, MBs were washed twice in assay buffer and magnetically transferred to the other channel through the fluidic bridge, whose opening and closing was controlled by a pneumatic valve. Next, 10 μL of sample solutions of tested drug and 10 μL of enzymatic substrate were sequentially infused to the channel by the pump and incubated with the enzyme. When the enzymatic reaction was finished, the MBs were retained in the channel, and air was injected into the channel from the inlet using a syringe to push all the reacted solution to a 384-well plate. […] Moreover, after detection, the reaction channel was washed three times by assay buffer to remove unbound constituents. 20 μL of 80% aqueous methanol was then injected and incubated with MBs for one hour to dissociate the bound constituents. The resulting solutions of replicates were combined, evaporated by a centrifugal evaporator, reconstituted in 80% aqueous methanol, centrifuged at 10,000 rpm for 10 min, and analyzed by LC-MS for chemical identification.",
  "data": [
    {"smiles": "O=C(O)C(O)Cc1ccc(O)c(O)c1", "note": "(centres unmarked) [Danshensu]", "values": [
      {"measurement": "ACE inhibition (in words)", "setting": "at tested concentrations", "result": "showed ACE inhibitions"},
      {"measurement": "inhibition rate", "setting": "for ACE, maximum inhibition rate observed in the assay", "result": 64.2, "unit": "%"}
    ]}
  ]
}
